Tests used:
Chlorella sp. ATCC 7516 = experiment: Algal efficacy testing of dry paint film (modified ASTM 5589), Chlorella; format: cell-based; conditions: 3 weeks; for Total conc (concentration chosen as minimum inhibitory concentration for SI): dry paint film, pass level ≧75% inhibition, total biocide in liquid paint
Protocol: (§1) Slurries containing 33% antimicrobial active ingredient (Zoxamide) and 45% antimicrobial ingredient Terbutryn were post added to a white, acrylic/silicone based outdoor paint free of biocides to give a total active ingredient concentration of […] respectively. These paints were then diluted with an antimicrobial free acrylic/silicone based paint and mixed to prepare targeted concentrations of antimicrobial compounds for the testing. The total biocides concentrations tested were 125, 250, 500, 1000, 2000 and 5000 ppm. After biocides addition or dilution, the paints were mixed 90 seconds with the horse power shaker (AXEL 75M3372/Agitateur SO-10MI) until uniformity was achieved. Paints containing different antimicrobial compounds at the same levels were mixed together in order to obtain the desired ratio of antimicrobial compounds. After one day, the paints were applied to Schleicher & Schuell filter paper at 280 μm wet film thickness and dried for 3 days at room temperature avoiding direct exposure to sunlight. Square discs (1.6 cm×1.6 cm) were cut out from each panel and were used as the substrate for algal efficacy tests. This sample size allowed for an agar border when the sample disc was placed into the well of the test plate.
(§2) Algal efficacy was tested according to modified ASTM 5589 which is a standard accelerated test method for determining resistance of various coatings (including paints) to algal defacement. To accommodate for high-throughput screening, this method was scaled down from petri dishes to 6-well plates. Bold Modified Basal Freshwater Nutrient Solution was used as growth medium. A single coated filter paper coupon was placed with a pair of sterile forceps at the center of the agar plug (on top) with the painted surface facing upwards. Algal inoculums were prepared by mixing equal concentrations (1×10^6 cfu/ml) and equal volumes of exponentially growing algae cultures.
(§3) Each well that contains a tested coupon was inoculated with 1750 μl of algal suspensions (1×10^6 cfu/ml) making sure that the whole surface (paint film as well as the agar surrounding it) was evenly covered. The plates were incubated at room temp (21° C.-25° C.) with cyclic exposure to light and dark phases, for a period of three weeks.
(§4) At the end of the three week incubation period, the samples were scored for percent inhibition regarding visible algal growth compared to the blank sample (0% inhibition).
(§5) The SI is calculated based on F .C. Kull et.
(§6) The minimal targeted inhibition was set at 75%, meaning a coupon with at least 75% algal growth inhibition was considered as a pass.

[1] = system: Stichococcus bacillaris SAG 379-1a / CCAP 379/1a; experiment: Algal efficacy testing of dry paint film (modified ASTM 5589), Stichococcus; format: cell-based; conditions: 3 weeks; for inhibition at 5000 ppm: Stichococcus bacillaris, 504 h, total conc 5000 ppm, visible algal growth vs blank; for Total conc (concentration chosen as minimum inhibitory concentration for SI): dry paint film, pass level ≧75% inhibition, total biocide in liquid paint
Protocol: as §1, §2, §3, §4, §5, §6

## CCNc1nc(NC(C)(C)C)nc(SC)n1 [Terbutryn, N^2-tert-butyl-N^4-ethyl-6-methylthio-1,3,5-triazine-2,4-diamine]
Chlorella sp. ATCC 7516; 504 h, total conc 2000 ppm, visible algal growth vs blank
  inhibition at 2000 ppm: 85%
Chlorella sp. ATCC 7516
  Total conc (concentration chosen as minimum inhibitory concentration for SI): 2000 ppm
[1]
  inhibition at 5000 ppm: 80%
  Total conc (concentration chosen as minimum inhibitory concentration for SI): 5000 ppm

## CCC(C)(NC(=O)c1cc(Cl)c(C)c(Cl)c1)C(=O)CCl (centres unmarked) [Zoxamide, 3,5-Dichloro-N-(3-chloro-1-ethyl-1-methyl-2-oxopropyl)-4-methylbenzamide]
Chlorella sp. ATCC 7516; 504 h, total conc 5000 ppm, visible algal growth vs blank
  inhibition at 5000 ppm: 60%
Chlorella sp. ATCC 7516
  Total conc (concentration chosen as minimum inhibitory concentration for SI): 5000 ppm
[1]
  inhibition at 5000 ppm: 45%
  Total conc (concentration chosen as minimum inhibitory concentration for SI): 5000 ppm

Source: patent publication US20150296783A1, “SYNERGISTIC COMBINATION OF A ZOXAMIDE COMPOUND AND TERBUTRYN FOR DRY FILM PROTECTION” (ROHM AND HAAS COMPANY, priority 2012, published 2015)
